From PMC5299059 (Cell metabolism, 2017) come the findings set out here.

The target of experiment [1] is T1, BRAF V600E (Homo sapiens, UniProt P15056, V600E). Briefly: […]-acetoacetate competition binding.
In experiment [2] the target is T2, BRAF V600R (Homo sapiens, UniProt P15056, V600R). The experiment can be described thus: […]-acetoacetate competition binding.
Experiment [3] addresses T3, BRAF V600D (Homo sapiens, UniProt P15056, V600D). The experiment can be described thus: […]-acetoacetate competition binding.
The target in experiment [4] is T1, BRAF V600E. Briefly: […]-labeled acetoacetate radiometric binding to purified bead-bound BRAF.
In experiment [5] the target is T3, BRAF V600D. The experiment is described as above.
The target in experiment [6] is T2, BRAF V600R. The description is as above.

T1 sequence (P15056 2-766 V600E): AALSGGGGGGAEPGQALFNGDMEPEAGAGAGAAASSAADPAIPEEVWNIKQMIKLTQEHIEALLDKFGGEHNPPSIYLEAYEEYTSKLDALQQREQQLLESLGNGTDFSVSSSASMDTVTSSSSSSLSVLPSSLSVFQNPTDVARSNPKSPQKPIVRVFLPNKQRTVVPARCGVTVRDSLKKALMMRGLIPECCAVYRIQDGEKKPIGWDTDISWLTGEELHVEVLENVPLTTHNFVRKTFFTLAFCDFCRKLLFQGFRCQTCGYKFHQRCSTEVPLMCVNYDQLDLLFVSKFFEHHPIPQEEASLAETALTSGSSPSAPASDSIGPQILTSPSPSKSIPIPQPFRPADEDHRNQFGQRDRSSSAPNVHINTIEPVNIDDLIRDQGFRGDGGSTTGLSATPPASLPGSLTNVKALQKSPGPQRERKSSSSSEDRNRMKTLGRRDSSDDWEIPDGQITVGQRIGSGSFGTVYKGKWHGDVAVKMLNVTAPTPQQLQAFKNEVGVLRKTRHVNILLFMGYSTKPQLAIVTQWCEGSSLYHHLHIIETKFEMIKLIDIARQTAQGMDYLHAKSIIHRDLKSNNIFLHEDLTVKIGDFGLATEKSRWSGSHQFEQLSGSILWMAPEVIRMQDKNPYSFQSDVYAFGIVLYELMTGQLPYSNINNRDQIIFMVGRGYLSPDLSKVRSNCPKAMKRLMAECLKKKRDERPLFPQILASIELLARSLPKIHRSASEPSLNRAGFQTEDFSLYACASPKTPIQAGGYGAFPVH
T3 sequence (P15056 whole entry V600D): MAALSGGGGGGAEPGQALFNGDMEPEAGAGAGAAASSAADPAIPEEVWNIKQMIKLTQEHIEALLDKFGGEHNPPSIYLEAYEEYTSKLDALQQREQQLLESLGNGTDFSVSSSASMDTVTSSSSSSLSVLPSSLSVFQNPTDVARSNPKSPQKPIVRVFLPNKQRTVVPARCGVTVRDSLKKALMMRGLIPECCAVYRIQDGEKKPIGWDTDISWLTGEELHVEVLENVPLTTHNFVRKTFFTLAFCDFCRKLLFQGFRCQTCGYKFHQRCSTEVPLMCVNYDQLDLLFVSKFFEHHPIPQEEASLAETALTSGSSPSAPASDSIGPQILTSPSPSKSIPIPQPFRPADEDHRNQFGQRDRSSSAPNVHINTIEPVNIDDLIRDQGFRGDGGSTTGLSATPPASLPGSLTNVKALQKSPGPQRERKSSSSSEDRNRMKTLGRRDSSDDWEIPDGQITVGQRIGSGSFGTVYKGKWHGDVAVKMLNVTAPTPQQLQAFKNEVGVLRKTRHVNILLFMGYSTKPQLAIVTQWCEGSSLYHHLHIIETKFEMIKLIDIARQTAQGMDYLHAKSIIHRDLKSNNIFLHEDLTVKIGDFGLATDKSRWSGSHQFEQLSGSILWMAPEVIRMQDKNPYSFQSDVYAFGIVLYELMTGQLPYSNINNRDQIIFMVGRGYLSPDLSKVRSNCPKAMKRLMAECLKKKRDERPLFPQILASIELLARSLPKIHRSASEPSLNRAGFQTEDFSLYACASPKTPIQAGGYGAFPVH
T2 sequence (P15056 whole entry V600R): as the sequence (P15056 whole entry V600D) above, with D600R counted along it

What is called Ki is the dissociation constant of the complex between target and ligand, obtained from inhibition or displacement. In the case of `CC(=O)C1C(=O)C=C(C)OC1=O` (stereo not drawn) [DHAA, dehydroacetic acid], the values for the Ki on BRAF V600E [1], on BRAF V600R [2] and on BRAF V600D [3] were about 88 µM, about 91 µM and about 88 µM, respectively.

In general, Kd refers to the equilibrium constant for the complex coming apart. On to `CC(=O)CC(=O)O` [AA, acetoacetate], for which the Kd on BRAF V600E [4] is about 92 µM; on BRAF V600D [5], about 93 µM; at BRAF V600R [6], about 113 µM.
